Values of other authors as cited in patent US6919359B2, “Azabicyclic-substituted-heteroaryl compounds for the treatment of disease” (Pfizer Inc, priority 2001, dated 2005).

What was measured:
5HT3R = target: T1, 5HT3R (Homo sapiens, UniProt P46098)
T1 sequence (P46098 24-478): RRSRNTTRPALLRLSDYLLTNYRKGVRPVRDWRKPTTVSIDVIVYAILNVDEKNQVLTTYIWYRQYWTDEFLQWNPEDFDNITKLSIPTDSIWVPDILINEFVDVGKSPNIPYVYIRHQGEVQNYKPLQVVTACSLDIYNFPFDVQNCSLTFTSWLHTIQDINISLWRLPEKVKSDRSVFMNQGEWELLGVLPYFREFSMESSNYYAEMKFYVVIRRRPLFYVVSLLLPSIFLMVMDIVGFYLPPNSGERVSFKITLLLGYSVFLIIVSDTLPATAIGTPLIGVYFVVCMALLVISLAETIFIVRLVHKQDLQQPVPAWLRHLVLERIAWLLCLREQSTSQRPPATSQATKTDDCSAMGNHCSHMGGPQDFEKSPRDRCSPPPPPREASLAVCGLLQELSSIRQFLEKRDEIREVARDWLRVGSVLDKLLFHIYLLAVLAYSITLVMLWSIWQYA

α7 nAChR = α7 nAChR (Homo sapiens, UniProt P36544)
Chain of α7 nAChR (P36544 23-502): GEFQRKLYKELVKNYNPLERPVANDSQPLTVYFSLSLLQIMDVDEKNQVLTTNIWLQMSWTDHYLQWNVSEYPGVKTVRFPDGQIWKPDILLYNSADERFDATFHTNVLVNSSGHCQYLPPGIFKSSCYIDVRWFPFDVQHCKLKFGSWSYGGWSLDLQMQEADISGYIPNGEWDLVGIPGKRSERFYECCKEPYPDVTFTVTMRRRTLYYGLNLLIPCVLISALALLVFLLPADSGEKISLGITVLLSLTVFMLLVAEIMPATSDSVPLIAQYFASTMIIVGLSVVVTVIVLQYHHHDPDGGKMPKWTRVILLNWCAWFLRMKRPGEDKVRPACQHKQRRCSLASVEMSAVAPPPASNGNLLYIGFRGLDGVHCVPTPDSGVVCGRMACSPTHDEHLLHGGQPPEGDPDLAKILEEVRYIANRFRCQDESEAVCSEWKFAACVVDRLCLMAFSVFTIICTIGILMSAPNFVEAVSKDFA

activity at the 5HT3R (5HT3R)	activity at the α7 nAChR (α7 nAChR)	SMILES
little activity		COc1ccc(/C=C2\CCCN=C2c2cccnc2)c(OC)c1 [GTS-21]
	little activity	Cc1nccn1CC1CCc2c(c3ccccc3n2C)C1=O (centres unmarked) [Ondansetron]
